The values that follow come from patent publication US20240368150A1 (Hoffmann-La Roche Inc., priority 2021, published 2024).

The test system of test [1] is primary human T-cells. Kind of test: Proliferation assay after 5 days (CellTiter-Glo, CD3 stimulation; PBS counter screen). It counts as cell-based. The following applies: Homo sapiens, T-cell, 120 h, CD3 stimulation; for Emax: 5 days, normalized to reference compound A1 as stimulator control = 100%, DMSO neutral control, read-out: Emax proliferation (% activation); for EC50: primary human T-cells, CellTiter-Glo after 5 days, EC50 of fitted sigmoidal curve, read-out: Tcell Proliferation CD3 EC50. In short, it runs like this: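 Luminescent ATP detection (CellTiter-Glo 2.0) quantified cell number 5 days after compounds went onto medium-only plates. Wells showing visible toxicity or precipitate were noted beforehand, and compounds that stimulated unstimulated cells or lowered viability were flagged.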
On the technique in general: ATP-based viability assays read luminescence as a measure of living cells.

Test [2] concerns MV-3 cells. Kind of test: T-cell - TCB - MV3 killing assay (MCSP-TCB, RFP object count by Incucyte). It counts as cell-based, human. The following applies: 5 d; for Emax: Homo sapiens, MV-3, 120 h, normalized: MCSP-TCB only = neutral control, 20 μM reference compound A1 = 100%, read-out: MSCP TCB killing MV-3 cells 5 d Emax; for EC50: primary human T-cells + MCSP-TCB, MV-3 RFP cells, read-out: MSCP TCB killing MV-3 cells 5 d EC50.

Test [3] concerns primary human T-cells.

Like-named read-outs stand apart in the source and are kept apart here.

As to `N[C@H]1CS(=O)(=O)c2cc(F)c(-c3nnc(NC4CC(F)(F)C4)o3)cc2N(Cc2ccc(Cl)cc2)C1=O` [Example 462, (3R)-3-amino-5-[(4-chlorophenyl)methyl]-7-[5-[(3,3-difluorocyclobutyl)amino]-1,3,4-oxadiazol-2-yl]-8-fluoro-1,1-dioxo-2,3-dihydro-1λ^6,5-benzothiazepin-4-one], the Emax in test [1] is 121%; in test [2], 100%. Moreover, the EC50 came to 0.562 µM in test [1], 0.35 µM in test [2] and 0.986 µM in test [3].
Taken in the same sequence, the figures for `N[C@H]1CS(=O)(=O)c2cc(F)c(-c3nnc(NC4CCCC(F)(F)C4)o3)cc2N(Cc2ccc(Cl)cc2)C1=O` (stereo partly drawn) [Example 463, (3R)-3-amino-5-[(4-chlorophenyl)methyl]-7-[5-[(3,3-difluorocyclohexyl)amino]-1,3,4-oxadiazol-2-yl]-8-fluoro-1,1-dioxo-2,3-dihydro-λ^6,5-benzothiazepin-4-one] were 104%, 91%, 0.519 µM, 0.54 µM and 0.577 µM.
As for `CC(C)Nc1nnc(-c2cc3c(cc2F)S(=O)(=O)C[C@H](N)C(=O)N3Cc2ccc(Cl)cc2)o1` [Example 464, (3R)-3-amino-5-[(4-chlorophenyl)methyl]-8-fluoro-7-[5-(isopropylamino)-1,3,4-oxadiazol-2-yl]-1,1-dioxo-2,3-dihydro-1λ^6,5-benzothiazepin-4-one], the Emax in test [1] was 111%; in test [2], 89%. Moreover, the EC50 in test [1] came to 1.04 µM; in test [2] it was 0.46 µM; in test [3], 1.13 µM.
For `CC(C)(C)Nc1nnc(-c2cc3c(cc2F)S(=O)(=O)C[C@H](N)C(=O)N3Cc2ccc(Cl)cc2)o1` [Example 488, (3R)-3-amino-7-[5-(tert-butylamino)-1,3,4-oxadiazol-2-yl]-5-[(4-chlorophenyl)methyl]-8-fluoro-1,1-dioxo-2,3-dihydro-1λ^6,5-benzothiazepin-4-one], in that order: 105%, 93%, 0.351 µM, 0.3 µM and 0.254 µM.
Taken in the same sequence, the figures for `CCc1nnn(-c2cc3c(cc2F)S(=O)(=O)C[C@H](N)C(=O)N3Cc2ccc(Cl)cc2)n1` [Example 509, (3R)-3-amino-5-[(4-chlorophenyl)methyl]-7-(5-ethyltetrazol-2-yl)-8-fluoro-1,1-dioxo-2,3-dihydro-1λ^6,5-benzothiazepin-4-one] were 122%, 94%, 0.158 µM, 0.19 µM and 0.29 µM.
